Columns and labels:
phBCCPPurT = molecular target: T1, phBCCPPurT (Pyrococcus horikoshii, UniProt O58056); assay: biochemical; type: binding; conditions: read-out: apparent Kd
T1 construct: gene purT

SEC = molecular target: the molecule itself; assay: SEC

T1 sequence (O58056 whole entry): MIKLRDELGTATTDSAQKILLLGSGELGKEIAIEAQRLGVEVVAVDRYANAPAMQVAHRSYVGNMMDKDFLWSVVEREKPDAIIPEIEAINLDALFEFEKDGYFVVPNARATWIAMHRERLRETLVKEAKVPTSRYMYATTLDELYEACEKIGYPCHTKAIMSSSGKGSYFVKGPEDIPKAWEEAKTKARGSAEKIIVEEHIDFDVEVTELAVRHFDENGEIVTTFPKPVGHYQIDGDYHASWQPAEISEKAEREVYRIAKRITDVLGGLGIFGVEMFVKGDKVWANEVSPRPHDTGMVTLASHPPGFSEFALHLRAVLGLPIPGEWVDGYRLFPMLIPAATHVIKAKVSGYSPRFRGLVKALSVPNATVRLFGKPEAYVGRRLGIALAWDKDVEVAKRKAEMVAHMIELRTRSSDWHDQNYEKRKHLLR

Nc1ncnc2c1ncn2[C@@H]1O[C@H](CO[P@](=O)(O)O[P@](=O)(O)O[P@@](=O)(O)S)[C@@H](O)[C@H]1O [ATPγS]
Kd (phBCCPPurT): 41.8 ± 7.21 µM

B1: Glycinamide-RNase-transformylase T from Mycobacterium tuberculosis (enzyme)
chain: MIDGWTEEQHEPTVRHERPAAPQDVRRVMLLGSAEPSRELAIALQGLGAEVIAVDGYVGAPAHRIADQSVVVTMTDAEELTAVIRRLQPDFLVTVTAAVSVDALDAVEQADGECTELVPNARAVRCTADREGLRRLAADQLGLPTAPFWFVGSLGELQAVAVHAGFPLLVSPVAGVAGQGSSVVAGPNEVEPAWQRAAGHQVQPQTGGVSPRVCAESVVEIEFLVTMIVVCSQGPNGPLIEFCAPIGHRDADAGELESWQPQKLSTAALDAAKSIAARIVKALGGRGVFGVELMINGDEVYFADVTVCPAGSAWVTVRSQRLSVFELQARAILGLAVDTLMISPGAARVINPDHTAGRAAVGAAPPADALTGALGVPESDVVIFGRGLGVALATAPEVAIARERAREVASRLNVPDSRE
notes: also called MtbPurT; PurT
stoichiometry N (SEC): 2

Reference: article PMC6968694 (Emerging Microbes & Infections, 2020)
